# “Also recorded” adds a separate entry of the source. Read-outs that look alike come from different tables or passages of the source.
# How the values were obtained:
# [1] = tested on: HLA-DR on CD14+ peripheral blood monocytes; experiment: Stabilization of HLA-DR-specific fluorescent signal during anti-HLA-DR antibody staining of whole blood, flow cytometry; assay type: cell-based, human
# Protocol: Peripheral blood samples were drawn from normal volunteers.
# The time-dependence of the HLA-DR-specific signal detectable by flow cytometry of antibody-stained peripheral blood monocytes was assessed by varying the duration of antibody staining.
# The effect of various additives on the stability of HLA-DR-specific fluorescence intensity was tested by including these reagents during the staining step.
# Incubation was at room temperature for the times indicated, after which 1 ml of 1× FACS™ Lysing Solution was added and incubation continued for 10 minutes.
# Following erythrocyte lysis, the samples were centrifuged at 250×g for 5 minutes, the supernatant removed, the pellet resuspended in 2 ml of PBS+0.5% BSA and recentrifuged. The final pellet was suspended in 0.5 ml of PBS+BSA and analyzed by flow cytometry, as above. Results are plotted in FIG. 2A.
# A second experiment, reported in FIG. 2B, was performed similarly, but omitting the post-lysis wash step: following erythrocyte lysis, the samples were centrifuged at 250×g for 5 minutes, the supernatant, containing lysis debris, removed, and the pellet resuspended directly in 0.5 ml of PBS+0.5% BSA. Again, flow cytometric acquisition of at least 2000 monocyte events was performed, and the PE fluorescence intensity of the monocyte population plotted.
# To test whether Brefeldin A and monensin would similarly stabilize HLA-DR expression in the flow cytometric assay, an additional series of experiments was performed.
# To 50 μl EDTA-anticoagulated whole blood was added 10 μl staining reagent (500 ng of HLA-DR-PE and 63 ng CD14-PerCP/CY5.5 in buffered saline containing gelatin and 0.1% sodium azide); the staining reagent further included the additives noted below. Samples were incubated with staining reagent for the times indicated, after which 1 ml of 1× FACS™ Lysing Solution was added. After incubation with lysing solution for 9.5 to 11.5 minutes, samples were directly analyzed using a FACSCalibur™ brand flow cytometer (BDIS, San Jose, Calif.).
# Additives to the staining composition for this latter series of experiments, reported in FIG. 2C, were: (A) nothing (“Control”); (B) 18 mM chloroquine; (C) 0.2 mM Brefeldin A; and (D) 0.013 mM monensin. Final concentrations of additives after 1:6 dilution during staining were: (B) 3 mM chloroquine; (C) 0.034 mM Brefeldin A; and (D) 0.0022mM monensin. […] 212:89-98 (1998).
# The data presented in FIG. 2C were acquired immediately after lysis; in contrast to experiments the results of which are presented in FIG. 1, the removal of lysis debris (by centrifugation and aspiration, optionally followed by wash) was omitted.
# A further experiment was performed to determine the minimum concentration of chloroquine needed to effect stabilization of HLA-DR expression on the surface of monocytes.
# An aliquot of 50 μl peripheral blood was drawn from a healthy volunteer and mixed with 10 μl HLA-DR quantitation reagent (50 μg/ml HLA-DR PE, 6.3 μg/ml CD14 PerCP-Cy5.5, in 10 mM sodium pyrophosphate, 0.15 M NaCl, pH 8). The HLA-DR quantitation reagent further contained chloroquine at 0 mM (control), 6 mM, 12 mM, or 18 mM.
# In each experiment, 4 blood samples were stained for each chloroquine level, with one each of the samples stained for 20, 40, 60 or 80 minutes.
# At the end of the staining period, the samples were lysed with 1× FACS™ Lysing Solution (BDIS) and analyzed on a FACScalibur Flow Cytometer. Five hundred monocyte events were collected.
# [2] = tested on: CD11b on human blood cells; experiment: Stabilization of CD11b-specific fluorescent signal during antibody staining of whole blood, flow cytometry; assay type: cell-based; settings: 3 mM final concentration, whole blood of three normal donors
# Protocol: Blood from three normal adult donors was collected in standard EDTA Vacutainer® tubes and placed directly on ice. Fifty (50) μl of whole blood was transferred to a tube containing 20 μl of a cocktail of CD11b PE and CD45 PerCP antibodies with or without chloroquine, with the chloroquine-containing tubes having a final chloroquine concentration of 3 mM. Blood was stained for the indicated time at room temperature before addition of 1.0 ml FACS lysing reagent (1×). Flow cytometric analysis was performed essentially as described in Examples 1 and 2.
# [3] = tested on: monocyte HLA-DR expression; settings: cited from earlier work
# [4] = additive during staining, final concentration 3 mM chloroquine, 0.1% azide, 0.034 mM Brefeldin A, 0.0022 mM monensin, 10-15 to 60 min incubation
compound,measurement,setting,value
C[C@H]1CCC/C=C/[C@@H]2C[C@H](O)C[C@H]2[C@H](O)/C=C/C(=O)O1 [Brefeldin A],stabilization of HLA-DR fluorescence signal over incubation time,[1]; [4],no significant stabilization
CCN(CC)CCCC(C)Nc1ccnc2cc(Cl)ccc12 (stereo not shown) [chloroquine],stabilization of CD11b fluorescent signal over staining time,[2],can similarly be stabilized
same,minimum concentration needed to effect HLA-DR stabilization,[1],2 mM
same,stabilization of HLA-DR expression at 1 mM,[1],insufficient to effect stabilization
same,stabilization of HLA-DR fluorescence signal over incubation time,[1],reliably stabilized HLA-DR fluorescence; also recorded: stabilizes the HLA-DR fluorescence signal
CCN(CCO)CCCC(C)Nc1ccnc2cc(Cl)ccc12 (stereo not shown) [hydroxychloroquine],stabilizing HLA-DR signal compared with chloroquine,[1]; experiments not shown,equally effective
CC[C@@]1([C@@H]2O[C@@H]([C@H]3O[C@@](O)(CO)[C@H](C)C[C@@H]3C)C[C@@H]2C)CC[C@H]([C@]2(C)CC[C@]3(C[C@H](O)[C@@H](C)[C@@H]([C@@H](C)[C@@H](OC)[C@H](C)C(=O)O)O3)O2)O1 [monensin],stabilization of HLA-DR fluorescence signal over incubation time,[1]; [4],no significant stabilization
"Gamma interferon: proinflammatory cytokine, major activator of monocytes",patients showing an increase in monocyte HLA-DR expression within 1 day of treatment,[3]; of 10 septic patients with fewer than 30% HLA-DR positive monocytes,8
same,patients responding within 2 to 3 days,[3]; of 10 septic patients,2
same,TNFα and IL-6 plasma levels during treatment,[3]; septic patients,significant increase

# — patent publication US6951727B2, “Methods and reagents for quantitation of cell-surface molecule expression on peripheral blood cells” (Becton Dickinson and Company, priority 1998, dated 2005)
